Results reported in publication PMC7719179, “Small molecule inhibition of Dynamin-dependent endocytosis targets multiple niche signals and impairs leukemia stem cells” (Nature Communications, 2020).
Where “and” joins values, the source holds several entries; their conditions need not be identical. Identical values can stand only once.

Legend:
[1] = tested on: normal hematopoietic cells of WT mice; experiment: Normal hematopoiesis in treated wild-type mice (thymus and bone marrow populations); format: in vivo
[2] = tested on: pre-LSC self-renewal; experiment: Serial transplantation assay of thymocytes from treated Lmo2^Tg mice; format: in vivo, mouse
Experimental: For primary transplantation, single-cell suspension of 2 × 10^6 thymocytes were intravenously injected into sublethally irradiated (650 Rads) isogenic Ly5.1 (Cd45.1) mice. Analysis was performed 4 weeks after transplantation and 5 × 10^6 thymocytes harvested from recipients were subsequently injected into sublethally irradiated (650 Rads) Ly5.1 (Cd45.1) recipients for the secondary and tertiary transplantations, as previously described.
Supplementary Figure 3. In vivo effect of Dynole 34-2. a, Treatment schematic and pharmacokinetic analysis of serum levels (µ M) of Dynole 34-2 at different time points (15, 30, 60, 120 and 240 minutes) following a single intraperitoneal injection (grey arrow) in 5 recipients (A, B, C, D, E). Average maximum concentration (Cmax), the time taken to reach this maximum concentration (Tmax), and the half-life (T 1/2) of Dynole 34-2 in the serum of treated mice are indicated.
Average concentration for each time point is indicated (bar). b , Treatment schematic and fold expansion of donor-derived L mo2-transgenic DN3a thymocytes enumerated in the thymus of primary (I), secondary (II) and tertiary (III) recipients, assessed four weeks after transplantation of cells harvested from 5 independent mice per cohort of donors. Number of recipients engrafted for each condition is indicated. Mean ± SD (N = number of independent mice analysed), Student’s t-test;

[3] = tested on: hematopoietic stem cells; experiment: Competitive transplant with bone marrow cells from treated WT mice (HSC activity); format: in vivo
Experimental: induction-like therapy (VXL) or combination therapy was administered. Mean ± SEM, 2-way ANOVA […]
murine B (CD19+ B220+), T (CD3+) and Myeloid (Gr-1 + CD11b+ granulocytes and monocytes) cells (c ), as well as Lineage-negative Kit-positive (Lin -Kit+, LK) progenitors, different populations of multipotent progenitors (MPP) and hematopoietic stem cells (HSC; d) from the bone marrow of WT […]
administered. Vehicle was used as control. e, Experimental schematic of competitive transplant […]
harvested from isogenic Cd45.1+ mice. These cells were injected into lethally -irradiated recipients, and lineage reconstitution was monitored every 4 weeks, until 20 weeks post-transplantation when BM was harvested for analysis. f, Percent of donor -derived (Cd45.2 +) cells among all peripheral blood cells at 4, 8, 12, 16 and 20 weeks post- transplant. g-h , Absolute numbers of donor-derived (Cd45.2+) lineage-committed (B, and Myeloid) cells ( g), as well as LK, MPP populations and HSCs (h ) harvested from the BM of recipients at 20 weeks post- transplant. Mean ± SEM, 2-way ANOV A with Tukey’s correction test; *P<0.05, *** P<0.001 compared to vehicle; #P<0.05, ##P<0.01, ###P<0.001 compared to VXL. ns = not statistically significant.

[4] = tested on: self-renewing pre-LSCs in Mx;YFP;Lmo2^Tg mice; experiment: Intrathymic competition assay in Mx;YFP;Lmo2^Tg mice (%YFP+ DN3a thymocytes, BM); format: in vivo, mouse
Text: To exclude this possibility, we used a cell-marking strategy that enables detection of pre-LSCs in the absence of transplantation. In this assay, treatment of Mx1-Cre transgenic Rosa26-YFP (Mx;YFP) reporter mice with polyinosinic-polycytidylic acid (poly (I : C)) induces yellow fluorescent protein (YFP) expression in hematopoietic stem cells (HSCs)[10] (Supplementary Fig. 4e). In WT Mx;YFP mice, normal turnover of the thymus by HSCs leads to the generation of YFP-labelled DN3a cells over a 3-week period. However, in Mx;YFP;Lmo2^Tg mice, the presence of self-renewing pre-LSCs prevents YFP-labelled HSCs to replenish the thymus[10] and, thus, Lmo2^Tg DN3a thymocytes remain YFP negative. Therefore, we reasoned that therapies targeting pre-LSC self-renewal would allow migration of YFP^+ HSCs with the generation of YFP-labelled thymocytes.

With CCCCCCCCNC(=O)C(C#N)=Cc1cn(CCCN(C)C)c2ccccc12 [Dynole 34-2, 2-Cyano-N-octyl-3-(1-(3-dimethylaminopropyl)-1H-indol-3-yl)-acrylamide] the “Absolute numbers in the thymus: DN” value ([1]; Supplementary Figure 5a-b) was 6020000 and 5580000 and 7110000, the “Absolute numbers in the thymus: DN1” value ([1]; Supplementary Figure 5a-b) was 511000 and 452000 and 707000 and the “Absolute numbers in the thymus: DN2” value ([1]; Supplementary Figure 5a-b) was 47600 and 47100 and 78500. The “Absolute numbers in the thymus: DN4” value ([1]; Supplementary Figure 5a-b) was 3000000 and 2950000 and 3730000, the “Absolute numbers in the thymus: DP” value ([1]; Supplementary Figure 5a-b) was 102000000 and 86500000 and 114000000 and the “Absolute numbers in the thymus: SP” value ([1]; Supplementary Figure 5a-b) was 11300000 and 9900000 and 12100000. The “Absolute numbers in the bone marrow: B cells” value ([1]; Supplementary Figure 5c-d) was 6210000 and 6630000 and 5010000, the “Absolute numbers in the bone marrow: MPP2” value ([1]; Supplementary Figure 5c-d) was 32800 and 19900 and 19000 and the “Absolute numbers in the bone marrow: MPP3” value ([1]; Supplementary Figure 5c-d) was 31000 and 22000 and 23000. The “Absolute numbers in the bone marrow: MPP4” value ([1]; Supplementary Figure 5c-d) was 146000 and 93900 and 87200, the “Absolute numbers in the bone marrow: Myeloid cells” value ([1]; Supplementary Figure 5c-d) was 9680000 and 8860000 and 9360000 and the “Absolute numbers in the bone marrow: T cells” value ([1]; Supplementary Figure 5c-d) was 1060000 and 911000 and 1020000. For the same molecule, the “effect on differentiated and progenitor cells in thymus and bone marrow” value ([1]; non-tumour-bearing mice, result in words) was “no detrimental effect”, the “repopulating activity in serial transplantation” value ([2]; tertiary recipients, result in words) was “complete loss of repopulating activity” and the “Fold expansion DN3a cells” value ([2]; transplant III) was 0.1 fold and 0.11 fold. For the same molecule, the “Absolute numbers of Cd45.2+ cells in the bone marrow: B cells” value ([3]; Supplementary Figure 5g-h) was 3150000 and 4270000 and 3310000 and 4360000, the “Absolute numbers of Cd45.2+ cells in the bone marrow: LK” value ([3]; Supplementary Figure 5g-h) was 231000 and 185000 and 205000 and 163000 and 160000 and the “Absolute numbers of Cd45.2+ cells in the bone marrow: Myeloid cells” value ([3]; Supplementary Figure 5g-h) was 955000 and 1600000 and 1200000 and 1410000 and 1720000. For the same molecule, the “Absolute numbers of Cd45.2+ cells in the bone marrow: T cells” value ([3]; Supplementary Figure 5g-h) was 471000 and 332000 and 364000 and 374000 and 460000, the “effect on HSC fitness and differentiation potential” value ([3]; competitive transplant of bone marrow from treated mice, result in words) was “no detrimental effect on HSC fitness and differentiation potential” and the “Proportion of CD45.2+ (%) in peripheral blood” value (from here on “Proportion of CD45.2+ (%)”) ([3]; week 4) was 40.53% and 37.56% and 37.9% and 34.3% and 35.3%. For the same molecule, the “Proportion of CD45.2+ (%)” value ([3]; week 8) was 36.97% and 46.65% and 45.78% and 44.9% and 43.63%, the “Proportion of CD45.2+ (%)” value ([3]; week 12) was 46.54% and 48.81% and 42.82% and 42.23% and 46.32% and the “Proportion of CD45.2+ (%)” value ([3]; week 16) was 42.09% and 57% and 54.04% and 43.93% and 53.26%. The “Proportion of CD45.2+ (%)” value ([3]; week 20) was 50.7% and 47.2% and 59.8% and 59.3% and 53.24%, the “% YFP+ cells in DN3a population” value ([4]; Mx, YFP, Lmo2Tg mice, individual mice) was 70.1% and 38.6% and 29.3% and the “YFP-labelled DN3a thymocytes” value ([4]; Mx;YFP;Lmo2^Tg mice, vehicle 10%) was 46%. For the same molecule, the “% YFP+ cells in bone marrow” value ([4]; genotype Mx, YFP, Lmo2Tg) was 99% and 98.9%.
